Data published in patent US6943195B2, “Cycloalkenone derivative” (Nikken Chemicals Co., Ltd, priority 2001, dated 2005).

Columns and labels:
Type III PDE = target: T1, Type III PDE (Rattus norvegicus, UniProt Q62865); assay: PDE III inhibitory activity (Test Example 1); assay type: biochemical; conditions: for IC50: Table I, PDE III partially purified from rat blood platelets, 3H-cAMP substrate; for PDE III inhibitory activity relative to that of the racemate: ratio to racemate
T1 construct: from tissue; host or cells: rat blood platelets
T1 sequence (Q62865 1-1141): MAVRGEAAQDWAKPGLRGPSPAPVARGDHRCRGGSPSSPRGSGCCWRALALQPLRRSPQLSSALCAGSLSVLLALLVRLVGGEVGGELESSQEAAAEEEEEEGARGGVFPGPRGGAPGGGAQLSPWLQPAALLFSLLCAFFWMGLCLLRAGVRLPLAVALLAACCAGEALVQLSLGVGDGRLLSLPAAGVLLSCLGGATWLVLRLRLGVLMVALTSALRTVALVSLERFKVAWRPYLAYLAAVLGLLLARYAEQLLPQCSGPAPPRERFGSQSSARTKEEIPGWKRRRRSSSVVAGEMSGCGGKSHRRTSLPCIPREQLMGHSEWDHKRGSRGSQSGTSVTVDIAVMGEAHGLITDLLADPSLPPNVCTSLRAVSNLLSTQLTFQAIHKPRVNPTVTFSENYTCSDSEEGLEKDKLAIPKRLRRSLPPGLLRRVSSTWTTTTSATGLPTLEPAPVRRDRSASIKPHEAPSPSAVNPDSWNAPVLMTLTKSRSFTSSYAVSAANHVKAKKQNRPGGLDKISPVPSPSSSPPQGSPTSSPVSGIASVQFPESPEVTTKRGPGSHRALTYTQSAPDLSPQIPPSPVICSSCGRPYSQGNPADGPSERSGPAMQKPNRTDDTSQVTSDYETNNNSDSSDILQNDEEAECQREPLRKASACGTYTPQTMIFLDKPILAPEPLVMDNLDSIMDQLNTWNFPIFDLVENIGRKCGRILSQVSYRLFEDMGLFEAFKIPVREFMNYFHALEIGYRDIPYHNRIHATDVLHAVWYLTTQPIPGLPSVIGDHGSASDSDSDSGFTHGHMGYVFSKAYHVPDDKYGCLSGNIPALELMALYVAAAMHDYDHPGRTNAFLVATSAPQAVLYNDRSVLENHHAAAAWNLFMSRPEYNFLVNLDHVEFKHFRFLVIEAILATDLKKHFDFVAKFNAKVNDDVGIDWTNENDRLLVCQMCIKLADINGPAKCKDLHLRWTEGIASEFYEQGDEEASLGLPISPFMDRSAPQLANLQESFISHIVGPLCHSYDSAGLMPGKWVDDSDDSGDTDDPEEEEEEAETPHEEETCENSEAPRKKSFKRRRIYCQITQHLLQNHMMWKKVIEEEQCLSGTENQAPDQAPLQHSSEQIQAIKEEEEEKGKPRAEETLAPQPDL
Protocol: (§1) To investigate the PDE inhibitory activity and selectivity of the compound, Type I, Type III, Type IV and Type V, that is, four types of PDE isozymes were prepared Trends Pharmacol. Sci. (TiPS), vol. 12, 19-27(1991). The Type I PDE used was one purchased from Sigma. Further, the Type III, Type IV and Type V PDE isozymes used were those partially purified from the blood platelets (Type III and Type V) or neutrophils (Type IV) taken from rats. Each enzyme source was homogenized in a buffer (pH6.5) containing 20 mM Bis-Tris, EDTA (ethylene diamine tetraacetate) 2 mM, PMSF (phenylmethylsulfonyl fluoride) 0.1 mM, 2-mercaptoethanol 5 mM, pepstatin 0.001 mM, and leupeptin 0.01 mM and centrifuged at 30000×G for 30 minutes. The centrifuged supernatent was passed through an ion exchange column (Q Sepharose Fast Flow, made by Pharmacia) and eluted by 0-1M sodium acetate. The partially purified isozyme was identified by investigating the effects of known selective inhibitors.
(§2) The tested compound was dissolved in DMSO (dimethylsulfoxide) and added to 50 mM tris-HCl buffer containing 5 mM […]. To this reaction solution, the above PDE isozyme and ^3H-cAMP (when Type III or Type IV of PDE) or ^3H-cGMP (when Type I or Type V of PDE) was added, as a substrate, and the mixture reacted at 30° C. for 30 minutes. After the reaction, the reaction mixture was placed in a 100° C. boiling solution for 5 minutes to stop the reaction. The nucleotide produced by the PDE was decomposed by 5′-nucleotidase into ^3H-adenosine or ^3H-guanosine. The unreacted substrate and reaction product were passed through an ion exchange column (QAE Sephadex, made by Pharmacia)to separate them. The radioactivity of the eluted ^3H-nucleoside was measured by a liquid sintillation counter. The inhibitory activity of each tested compound was indicated by the IC50 value (μM). The inhibitory activity against Type IV was shown in Table 2, while the inhibitory activity against Type III was shown in Table 3. Further, the inhibitory activity of each test compound to Type I and Type V was less than 1/10 to Type IV.

Type IV PDE [1] = system: T2, Type IV PDE; assay: PDE IV inhibitory activity (Test Example 1); assay type: biochemical, rat; conditions: for IC50: 3H-cAMP substrate; for PDE IV inhibitory activity relative to that of the racemate: ratio to racemate
T2 construct: PDE IV partially purified from rat neutrophils, 3H-cAMP substrat; PDE IV from rat neutrophils, 3H-cAMP substrate; other: ratio to racemate
Protocol: as §1, §2

Type IV PDE [2] = assay: PDE IV inhibitory activity (Test Example 1); assay type: biochemical, rat; conditions: PDE IV versus PDE III, compared with the racemate
Protocol: as §1, §2

[3] = Table I, PDE IV partially purified from rat neutrophils
[4] = Table II, PDE IV from rat neutrophils
[5] = listed as The compound of the present invention

## COc1ccc(NC2=C(C)C(=O)CC2)cc1O[C@@H]1C[C@H]2CC[C@@H]1C2 (racemic) [(±)-isomer, (±)-3-[3-[(1RS,2RS,4SR)-bicyclo[2.2.1]hept-2-yloxy]-4-methoxyanilino]-2-methyl-2-cyclopenten-1-one, reference compound]
Type III PDE
  IC50: 3.86 µM
Type IV PDE [1]; [3]
  IC50: 270 nM
Type IV PDE [1]; [4]
  IC50: 270 nM

## COc1ccc(NC2=C(C)C(=O)CC2)cc1O[C@H]1C[C@@H]2CC[C@H]1C2 [(+)-isomer, (+)-3-[3-[(1S,2S,4R)-bicyclo[2.2.1]hept-2-yloxy]-4-methoxyanilino]-2-methyl-2-cyclopenten-1-one]
Type III PDE
  IC50: 1.57 µM
  PDE III inhibitory activity relative to that of the racemate: twice or more of that of the racemate
Type IV PDE [2]
  selectivity with respect to PDE IV: low
Type IV PDE [1]; [3]
  IC50: 360 nM
Type IV PDE [1]; [4]
  IC50: 360 nM
Type IV PDE [1]
  PDE IV inhibitory activity relative to that of the racemate: about ¾

## COc1ccc(NC2=C(C)C(=O)CC2)cc1O[C@@H]1C[C@H]2CC[C@@H]1C2 [(−)-isomer, (−)-3-[3-[(1R,2R,4S)-bicyclo[2.2.1]hept-2-yloxy]-4-methoxyanilino]-2-methyl-2-cyclopenten-1-one]
Type III PDE
  IC50: 9.03 µM
  PDE III inhibitory activity relative to that of the racemate: less than half of that of the racemate
Type III PDE; [5]
  PDE III inhibitory activity relative to that of the racemate: less than ½
Type IV PDE [2]
  selectivity with respect to PDE IV: high
Type IV PDE [1]; [3]
  IC50: 120 nM
Type IV PDE [1]; [4]
  IC50: 120 nM
Type IV PDE [1]
  PDE IV inhibitory activity relative to that of the racemate: about twice that of the racemate
Type IV PDE [1]; [5]
  PDE IV inhibitory activity relative to that of the racemate: at least two times that of a racemate
